According to ChEMBL document CHEMBL1201862, “PubChem BioAssay data set” (2004):
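Grown in 96-well plates, cells were treated for 48 hours with each compound at five concentrations. Insufficient inhibition: endpoint recorded as highest concentration tested. At the GI50, growth is halved.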 Active and inactive are the calls of the source. Cut-off read from the data, not from the text of the source: active = GI50 up to about 1.1 µM and inactive = higher.

How the values were obtained:
Experiment in all cases: inhibition of tumour cell growth, NCI panel, 48 h
NCI-H23 = tested on: NCI-H23
HOP-62 = tested on: HOP-62
NCI-H460 = tested on: NCI-H460
RPMI-8226 = tested on: RPMI-8226
KM12 = tested on: KM12
SF-268 = tested on: SF-268
UACC-62 = tested on: UACC-62
A498 = tested on: A498
PC-3 = tested on: PC-3
IGROV-1 = tested on: IGROV-1
MDA-N = tested on: MDA-N
SR = tested on: SR
Hs-578T = tested on: Hs-578T
ACHN = tested on: ACHN
SNB-75 = tested on: SNB-75
OVCAR-5 = tested on: OVCAR-5
SK-MEL-28 = tested on: SK-MEL-28
RXF 393 = tested on: RXF 393
NCI-H226 = tested on: NCI-H226

| Structure (SMILES) | GI50 (NCI-H23) | GI50 (HOP-62) | GI50 (NCI-H460) | GI50 (RPMI-8226) | GI50 (KM12) | GI50 (SF-268) | GI50 (UACC-62) | GI50 (A498) | GI50 (PC-3) | GI50 (IGROV-1) | GI50 (MDA-N) | GI50 (SR) | GI50 (Hs-578T) | GI50 (ACHN) | GI50 (SNB-75) | GI50 (OVCAR-5) | GI50 (SK-MEL-28) | GI50 (RXF 393) | GI50 (NCI-H226) |
| --- | --- | --- | --- | --- | --- | --- | --- | --- | --- | --- | --- | --- | --- | --- | --- | --- | --- | --- | --- |
| CN(C)Cc1cc(C(C)(C)C)cc(CN(C)C)c1O | > 100 µM (inactive) | 68.5 µM (inactive) | 36.4 µM (inactive) | > 100 µM (inactive) | 70.8 µM (inactive) | 79.3 µM (inactive) | > 100 µM (inactive) | > 100 µM (inactive) | 77.8 µM (inactive) | > 100 µM (inactive) | > 100 µM (inactive) | 54.8 µM (inactive) | > 100 µM (inactive) | 65.3 µM (inactive) | > 100 µM (inactive) | 57.3 µM (inactive) | > 100 µM (inactive) | > 100 µM (inactive) |  |
| O=C1C/C(=N/c2ccc(Cl)cc2)C(c2ccccc2)N1c1ccccc1 (stereo not given) | 10 µM (inactive) | 32.1 µM (inactive) | 29 µM (inactive) | 2.28 µM (inactive) | 6.61 µM (inactive) | 3.6 µM (inactive) | 1.43 µM (inactive) | 19.3 µM (inactive) | 3.28 µM (inactive) | 18.2 µM (inactive) | 2.5 µM (inactive) | 5.43 µM (inactive) | 6.12 µM (inactive) | 6.43 µM (inactive) |  |  | 7.87 µM (inactive) | 35 µM (inactive) | 10.1 µM (inactive) |
| C/C=C\C(CC(=O)O)CN1CCC2=C(C1)C(S(=O)(=O)C(F)(F)F)c1ccccc12 (stereo not given) | > 100 µM (inactive) | > 100 µM (inactive) | > 100 µM (inactive) | > 100 µM (inactive) | > 100 µM (inactive) | > 100 µM (inactive) | > 100 µM (inactive) | > 100 µM (inactive) | > 100 µM (inactive) | > 100 µM (inactive) | > 100 µM (inactive) | > 100 µM (inactive) | > 100 µM (inactive) | > 100 µM (inactive) | > 100 µM (inactive) | > 100 µM (inactive) | > 100 µM (inactive) | > 100 µM (inactive) |  |
| Nc1nc(N)c2nc(CNc3ccc(C(=O)NC(CCNC(=O)c4ccccc4C(=O)O)C(=O)O)cc3)cnc2n1 (stereo not given) | < 0.0226 µM (active) | < 0.0205 µM (active) | 0.01 µM (active) | 0.083 µM (active) | 0.0168 µM (active) | 0.0101 µM (active) | < 0.0126 µM (active) | 0.054 µM (active) | 0.01 µM (active) | < 0.0212 µM (active) | 0.00785 µM (active) | 0.01 µM (active) | > 100 µM (inactive) | 0.01 µM (active) |  | > 100 µM (inactive) | 4.14 µM (inactive) |  | > 100 µM (inactive) |
| Cc1c(C(=O)O)n2cnnc2c2ccccc12 | > 100 µM (inactive) | > 100 µM (inactive) | > 100 µM (inactive) | > 100 µM (inactive) | > 100 µM (inactive) | > 100 µM (inactive) | > 100 µM (inactive) | > 100 µM (inactive) | > 100 µM (inactive) | > 100 µM (inactive) | > 100 µM (inactive) | > 100 µM (inactive) | > 100 µM (inactive) | > 100 µM (inactive) |  | > 100 µM (inactive) | > 100 µM (inactive) | > 100 µM (inactive) | > 100 µM (inactive) |
| Cc1ccc(-n2cc(-c3ccc(Cl)cc3)c3c2N=CN2N=C(c4ccco4)NC32)cc1 (stereo not given) | 19.7 µM (inactive) | 7.64 µM (inactive) | 4.49 µM (inactive) |  |  | 15.3 µM (inactive) | 13.1 µM (inactive) | 4.22 µM (inactive) | 12.8 µM (inactive) | 7.62 µM (inactive) | 19.5 µM (inactive) | 0.78 µM (active) | 2.05 µM (inactive) | 4.24 µM (inactive) | 4.75 µM (inactive) | > 100 µM (inactive) | 71 µM (inactive) | 11.2 µM (inactive) | 11.2 µM (inactive) |
| COc1cc2c[n+](C)c3c4ccccc4ccc3c2cc1OC | 2.6 µM (inactive) | 18.6 µM (inactive) | 10 µM (inactive) | 3.05 µM (inactive) | 0.452 µM (active) | 0.224 µM (active) | 4.6 µM (inactive) | 37.4 µM (inactive) | 4.89 µM (inactive) |  | 4.45 µM (inactive) |  | 2.51 µM (inactive) | 35.9 µM (inactive) | 5.89 µM (inactive) | 26.7 µM (inactive) | 3.42 µM (inactive) | 14.6 µM (inactive) | 2.94 µM (inactive) |
| CCN(CC)c1nc(N(C)C)c2cc(OC)ccc2n1 | 29.6 µM (inactive) | 92.7 µM (inactive) | 20 µM (inactive) | 20.1 µM (inactive) | 26.6 µM (inactive) | 25.8 µM (inactive) | 25.8 µM (inactive) | 32.6 µM (inactive) | 33.2 µM (inactive) | 30.8 µM (inactive) | 24.7 µM (inactive) | 21.9 µM (inactive) | 31.2 µM (inactive) | 33 µM (inactive) |  | 62.5 µM (inactive) | 28.3 µM (inactive) | 24.3 µM (inactive) | 21.9 µM (inactive) |
| CC(=O)Oc1ccccc1-c1cc2ccccc2oc1=O | 83.8 µM (inactive) | > 100 µM (inactive) | > 100 µM (inactive) | > 100 µM (inactive) | > 100 µM (inactive) | > 100 µM (inactive) |  | > 100 µM (inactive) | > 100 µM (inactive) |  | > 100 µM (inactive) | > 100 µM (inactive) | > 100 µM (inactive) | > 100 µM (inactive) | 32.8 µM (inactive) | > 100 µM (inactive) | > 100 µM (inactive) |  | 31 µM (inactive) |
| COc1ccc(/C(Br)=C2\OC(=O)c3ccccc32)cc1 | > 10 µM (inactive) | > 10 µM (inactive) | > 10 µM (inactive) | > 10 µM (inactive) | > 10 µM (inactive) | > 10 µM (inactive) | > 10 µM (inactive) |  | > 10 µM (inactive) | > 10 µM (inactive) | > 10 µM (inactive) | > 10 µM (inactive) | > 10 µM (inactive) | > 10 µM (inactive) | > 10 µM (inactive) | > 10 µM (inactive) | > 10 µM (inactive) | > 10 µM (inactive) | > 10 µM (inactive) |
| COc1cc(/C=C/c2nc(N)nnc2C)cc(OC)c1OC | 13.9 µM (inactive) | 13 µM (inactive) | 13.8 µM (inactive) | 14.1 µM (inactive) | 10.9 µM (inactive) | 21.5 µM (inactive) | 6.82 µM (inactive) | 18 µM (inactive) | 11.4 µM (inactive) | 15.6 µM (inactive) | 35.2 µM (inactive) | 7.52 µM (inactive) | 11.9 µM (inactive) | 15.5 µM (inactive) |  | > 38.5 µM (inactive) | 30.1 µM (inactive) | 22.9 µM (inactive) | 10.1 µM (inactive) |
| O=C1c2cc3ccccc3cc2C2(c3ccc(Cl)cc3)N[C@H]3CCCC[C@@H]3N12 (stereo not given in full) | 14.6 µM (inactive) | 6.79 µM (inactive) | 14.9 µM (inactive) | 18.4 µM (inactive) | 16.9 µM (inactive) | 16.5 µM (inactive) | 15 µM (inactive) | 18.3 µM (inactive) | 14.9 µM (inactive) | 13.3 µM (inactive) | 18.1 µM (inactive) | 14.7 µM (inactive) | 11.7 µM (inactive) | 15.2 µM (inactive) | 16.5 µM (inactive) | 21 µM (inactive) | 12.3 µM (inactive) | 9.89 µM (inactive) |  |
| COc1ccc2c(CCN)c(C(=O)O)[nH]c2c1 | > 100 µM (inactive) | > 100 µM (inactive) | > 100 µM (inactive) | > 100 µM (inactive) | > 100 µM (inactive) | > 100 µM (inactive) | > 100 µM (inactive) | > 100 µM (inactive) | > 100 µM (inactive) | > 100 µM (inactive) | > 100 µM (inactive) |  | > 100 µM (inactive) | > 100 µM (inactive) | > 100 µM (inactive) | > 100 µM (inactive) | > 100 µM (inactive) | > 100 µM (inactive) | > 100 µM (inactive) |
| Cc1ccc(/C=C2\Sc3scc(-c4ccccc4)[n+]3C2=O)cc1 | 17.5 µM (inactive) | 26.2 µM (inactive) | 16.8 µM (inactive) | 8.28 µM (inactive) | 18.5 µM (inactive) | 17.9 µM (inactive) | 16.7 µM (inactive) |  | 29 µM (inactive) | 18 µM (inactive) | 18 µM (inactive) | 5 µM (inactive) | 3.38 µM (inactive) | 20.7 µM (inactive) | 10.8 µM (inactive) | 33.4 µM (inactive) | 51.5 µM (inactive) | 25.9 µM (inactive) | 37.3 µM (inactive) |
| O=C1NC(=O)[C@@]2(CC[C@@H](O)C2)c2ccncc21 [SESBANINE] | > 100 µM (inactive) |  | > 100 µM (inactive) |  | > 100 µM (inactive) | > 100 µM (inactive) | > 100 µM (inactive) | > 100 µM (inactive) | > 100 µM (inactive) | > 100 µM (inactive) | > 100 µM (inactive) | > 100 µM (inactive) | > 100 µM (inactive) | > 100 µM (inactive) | > 100 µM (inactive) | > 100 µM (inactive) | > 100 µM (inactive) | > 100 µM (inactive) | > 100 µM (inactive) |
